What was measured:
Test in all cases: biochemical
Design in all cases: species or system HEK293/K-562/placenta mixed human extract; Kinobeads chemoproteomic competition binding, quantified by TMT LC-MS/MS, dose response up to 20 uM
IRAK1 = IRAK1 (Homo sapiens, UniProt P51617)
NEK2 = NEK2 (Homo sapiens, UniProt P51955)
AZI2 = AZI2 (Homo sapiens, UniProt Q9H6S1)
RAF1 = RAF1 (Homo sapiens, UniProt P04049)
IRAK3 = IRAK3 (Homo sapiens, UniProt Q9Y616)
EPHA4 = EPHA4 (Homo sapiens, UniProt P54764)
NEK6 = NEK6 (Homo sapiens, UniProt Q9HC98)
NEK6, sequence (Q9HC98 whole entry): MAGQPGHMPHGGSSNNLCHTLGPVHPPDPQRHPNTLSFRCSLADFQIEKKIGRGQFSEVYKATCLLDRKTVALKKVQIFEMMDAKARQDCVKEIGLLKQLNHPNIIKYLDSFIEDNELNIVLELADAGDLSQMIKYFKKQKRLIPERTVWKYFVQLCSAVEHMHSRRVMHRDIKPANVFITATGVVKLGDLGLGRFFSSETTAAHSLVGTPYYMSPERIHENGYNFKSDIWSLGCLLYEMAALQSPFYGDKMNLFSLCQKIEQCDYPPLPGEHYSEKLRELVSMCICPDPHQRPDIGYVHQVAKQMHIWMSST

EPHB2 = EPHB2 (Homo sapiens, UniProt P29323)
PDXK = PDXK (Homo sapiens, UniProt O00764)
PDXK, sequence (O00764 whole entry): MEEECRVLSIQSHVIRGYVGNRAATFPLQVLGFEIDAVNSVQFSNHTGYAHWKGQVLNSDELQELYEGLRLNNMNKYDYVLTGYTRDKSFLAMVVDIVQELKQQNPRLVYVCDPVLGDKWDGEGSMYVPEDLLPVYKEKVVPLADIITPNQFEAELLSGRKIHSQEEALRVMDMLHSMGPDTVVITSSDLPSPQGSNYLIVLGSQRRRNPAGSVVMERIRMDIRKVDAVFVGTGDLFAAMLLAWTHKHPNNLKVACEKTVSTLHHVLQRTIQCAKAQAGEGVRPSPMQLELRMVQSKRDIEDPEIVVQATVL

TNIK = TNIK (Homo sapiens, UniProt Q9UKE5)
TNIK, sequence (Q9UKE5 whole entry): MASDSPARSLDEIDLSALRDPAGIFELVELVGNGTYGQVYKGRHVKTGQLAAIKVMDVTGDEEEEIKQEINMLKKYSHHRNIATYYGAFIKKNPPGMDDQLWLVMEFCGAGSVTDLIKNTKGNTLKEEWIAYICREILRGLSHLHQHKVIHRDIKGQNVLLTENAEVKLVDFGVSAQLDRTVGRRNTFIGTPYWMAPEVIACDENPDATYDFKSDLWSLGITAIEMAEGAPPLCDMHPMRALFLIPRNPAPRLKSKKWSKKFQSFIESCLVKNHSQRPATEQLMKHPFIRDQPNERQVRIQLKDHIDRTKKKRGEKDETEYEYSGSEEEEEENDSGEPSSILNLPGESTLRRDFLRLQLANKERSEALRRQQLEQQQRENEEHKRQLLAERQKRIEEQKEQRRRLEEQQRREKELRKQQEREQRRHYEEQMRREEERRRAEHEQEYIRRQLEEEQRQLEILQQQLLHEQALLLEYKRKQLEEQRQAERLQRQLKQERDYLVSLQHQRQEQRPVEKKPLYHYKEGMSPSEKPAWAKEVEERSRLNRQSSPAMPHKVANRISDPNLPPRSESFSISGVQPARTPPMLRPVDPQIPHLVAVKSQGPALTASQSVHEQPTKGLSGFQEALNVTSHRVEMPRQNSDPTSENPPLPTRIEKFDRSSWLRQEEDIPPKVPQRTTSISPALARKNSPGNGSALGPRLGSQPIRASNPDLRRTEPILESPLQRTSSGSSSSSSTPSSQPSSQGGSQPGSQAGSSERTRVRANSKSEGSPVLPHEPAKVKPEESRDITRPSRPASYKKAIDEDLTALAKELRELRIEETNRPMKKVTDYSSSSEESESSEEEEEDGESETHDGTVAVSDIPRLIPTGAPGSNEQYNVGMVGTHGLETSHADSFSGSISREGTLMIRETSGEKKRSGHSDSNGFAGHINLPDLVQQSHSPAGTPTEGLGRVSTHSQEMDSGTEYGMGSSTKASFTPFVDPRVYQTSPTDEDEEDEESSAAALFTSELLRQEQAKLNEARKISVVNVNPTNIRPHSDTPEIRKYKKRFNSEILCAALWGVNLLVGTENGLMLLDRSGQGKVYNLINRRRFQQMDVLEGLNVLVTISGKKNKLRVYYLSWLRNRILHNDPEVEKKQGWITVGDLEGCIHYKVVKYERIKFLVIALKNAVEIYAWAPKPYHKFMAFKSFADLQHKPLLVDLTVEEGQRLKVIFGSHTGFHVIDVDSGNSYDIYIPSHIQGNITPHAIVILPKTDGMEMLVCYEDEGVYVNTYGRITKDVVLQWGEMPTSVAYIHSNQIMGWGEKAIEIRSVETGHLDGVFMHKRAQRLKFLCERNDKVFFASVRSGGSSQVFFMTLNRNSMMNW

PIM1 = PIM1 (Homo sapiens, UniProt P11309)
PIM1, sequence (P11309 whole entry): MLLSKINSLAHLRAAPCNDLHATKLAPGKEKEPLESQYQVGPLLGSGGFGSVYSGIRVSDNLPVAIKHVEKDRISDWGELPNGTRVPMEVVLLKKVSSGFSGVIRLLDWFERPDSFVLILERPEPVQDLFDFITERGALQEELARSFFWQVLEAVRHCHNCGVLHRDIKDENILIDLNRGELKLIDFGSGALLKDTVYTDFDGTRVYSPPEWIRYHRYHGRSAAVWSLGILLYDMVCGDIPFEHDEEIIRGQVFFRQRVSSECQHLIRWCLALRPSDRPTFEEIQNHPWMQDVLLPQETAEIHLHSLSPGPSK

FGR = FGR (Homo sapiens, UniProt P09769)
FGR, sequence (P09769 whole entry): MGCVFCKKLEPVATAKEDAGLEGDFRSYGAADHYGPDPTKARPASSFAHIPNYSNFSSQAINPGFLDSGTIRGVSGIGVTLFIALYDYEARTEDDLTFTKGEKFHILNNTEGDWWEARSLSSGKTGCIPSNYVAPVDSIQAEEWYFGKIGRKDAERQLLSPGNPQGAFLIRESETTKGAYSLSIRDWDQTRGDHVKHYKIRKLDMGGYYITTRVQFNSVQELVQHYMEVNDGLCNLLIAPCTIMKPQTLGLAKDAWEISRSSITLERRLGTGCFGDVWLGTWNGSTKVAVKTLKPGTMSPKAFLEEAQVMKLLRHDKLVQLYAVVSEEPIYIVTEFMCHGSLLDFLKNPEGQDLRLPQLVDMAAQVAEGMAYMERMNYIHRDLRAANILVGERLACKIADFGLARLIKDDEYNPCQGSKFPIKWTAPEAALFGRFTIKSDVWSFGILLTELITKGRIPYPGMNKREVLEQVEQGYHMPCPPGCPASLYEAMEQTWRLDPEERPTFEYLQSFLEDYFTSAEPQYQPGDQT

BMP2K = BMP2K (Homo sapiens, UniProt Q9NSY1)
BMP2K, sequence (Q9NSY1 whole entry): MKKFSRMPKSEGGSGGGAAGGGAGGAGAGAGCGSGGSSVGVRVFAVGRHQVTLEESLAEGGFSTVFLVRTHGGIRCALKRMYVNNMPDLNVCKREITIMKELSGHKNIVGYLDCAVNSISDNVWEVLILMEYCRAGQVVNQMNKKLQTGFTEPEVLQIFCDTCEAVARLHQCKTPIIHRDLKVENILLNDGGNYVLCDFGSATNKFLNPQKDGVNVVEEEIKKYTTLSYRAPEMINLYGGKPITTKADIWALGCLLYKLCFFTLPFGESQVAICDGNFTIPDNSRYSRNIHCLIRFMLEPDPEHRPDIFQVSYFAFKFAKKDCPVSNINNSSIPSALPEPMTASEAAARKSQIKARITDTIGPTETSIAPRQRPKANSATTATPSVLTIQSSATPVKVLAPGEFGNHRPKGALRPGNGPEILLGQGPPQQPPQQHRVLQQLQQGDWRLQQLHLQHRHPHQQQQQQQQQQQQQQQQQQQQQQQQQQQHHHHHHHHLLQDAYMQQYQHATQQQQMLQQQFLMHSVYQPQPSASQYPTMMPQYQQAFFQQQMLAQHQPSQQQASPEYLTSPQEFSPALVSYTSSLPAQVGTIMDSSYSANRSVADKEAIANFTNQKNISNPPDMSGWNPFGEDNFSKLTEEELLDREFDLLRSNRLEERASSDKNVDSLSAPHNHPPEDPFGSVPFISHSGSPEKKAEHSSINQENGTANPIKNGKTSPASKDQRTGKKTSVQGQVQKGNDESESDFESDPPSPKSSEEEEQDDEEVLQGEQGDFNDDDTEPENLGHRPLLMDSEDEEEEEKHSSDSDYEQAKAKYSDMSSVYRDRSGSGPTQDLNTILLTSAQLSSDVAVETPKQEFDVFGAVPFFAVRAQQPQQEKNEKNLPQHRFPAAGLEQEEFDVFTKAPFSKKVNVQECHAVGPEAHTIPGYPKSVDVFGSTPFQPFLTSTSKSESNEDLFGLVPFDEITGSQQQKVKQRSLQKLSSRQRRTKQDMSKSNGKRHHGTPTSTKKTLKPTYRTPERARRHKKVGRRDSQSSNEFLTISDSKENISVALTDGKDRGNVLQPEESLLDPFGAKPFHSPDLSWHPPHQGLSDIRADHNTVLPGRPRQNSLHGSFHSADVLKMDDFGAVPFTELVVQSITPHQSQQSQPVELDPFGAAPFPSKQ

MAP3K7 = MAP3K7 (Homo sapiens, UniProt O43318)
CSK = CSK (Homo sapiens, UniProt P41240)
CSK, sequence (P41240 whole entry): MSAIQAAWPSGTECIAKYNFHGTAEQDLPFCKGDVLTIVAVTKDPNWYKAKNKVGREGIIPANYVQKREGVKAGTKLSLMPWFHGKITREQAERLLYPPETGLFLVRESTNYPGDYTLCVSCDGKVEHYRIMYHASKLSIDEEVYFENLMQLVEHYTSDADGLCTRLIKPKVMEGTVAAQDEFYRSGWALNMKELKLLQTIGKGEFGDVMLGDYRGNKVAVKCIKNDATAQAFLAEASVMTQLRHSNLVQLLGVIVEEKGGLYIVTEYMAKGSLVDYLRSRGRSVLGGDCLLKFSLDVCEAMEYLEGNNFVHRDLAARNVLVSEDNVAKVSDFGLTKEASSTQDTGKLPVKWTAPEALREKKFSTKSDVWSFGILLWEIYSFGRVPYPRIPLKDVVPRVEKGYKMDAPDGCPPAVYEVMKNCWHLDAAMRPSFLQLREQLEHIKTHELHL

CLK2 = CLK2 (Homo sapiens, UniProt P49760)
CLK2, sequence (P49760 whole entry): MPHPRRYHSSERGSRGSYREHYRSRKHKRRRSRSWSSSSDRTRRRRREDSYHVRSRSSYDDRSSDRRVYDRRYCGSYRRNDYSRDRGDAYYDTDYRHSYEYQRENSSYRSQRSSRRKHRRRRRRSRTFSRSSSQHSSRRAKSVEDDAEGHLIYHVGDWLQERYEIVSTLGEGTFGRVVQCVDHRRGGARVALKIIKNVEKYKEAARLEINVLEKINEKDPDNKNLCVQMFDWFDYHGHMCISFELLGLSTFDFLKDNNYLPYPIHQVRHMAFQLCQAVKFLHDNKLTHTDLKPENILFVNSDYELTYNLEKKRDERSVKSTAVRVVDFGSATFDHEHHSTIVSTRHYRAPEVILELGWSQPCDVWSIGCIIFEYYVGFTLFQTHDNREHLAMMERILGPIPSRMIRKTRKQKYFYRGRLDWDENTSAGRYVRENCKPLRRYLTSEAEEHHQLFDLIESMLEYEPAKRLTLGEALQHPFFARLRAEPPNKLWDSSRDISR

STK10 = STK10 (Homo sapiens, UniProt O94804)
DYRK1A = DYRK1A (Homo sapiens, UniProt Q13627)
CSNK1E = CSNK1E (Homo sapiens, UniProt P49674)
MAPK11 = MAPK11 (Homo sapiens, UniProt Q15759)
MAP3K5 = MAP3K5 (Homo sapiens, UniProt Q99683)

Measured: IC50

COc1nc(N[C@H]2CC[C@H](NS(=O)(=O)CC(C)C)CC2)nc2[nH]nc(N3CCOC[C@H]3C)c12 [compound 39, N-(trans-4-((4-Methoxy-3-((R)-3-methylmorpholino)-1H-pyrazolo[3,4-d]pyrimidin-6-yl)amino)cyclohexyl)-2-methylpropane-1-sulfonamide]
≥ 20 µM: all assays above

Reference: publication PMC6407917, “Identification of GSK3186899/DDD853651 as a Preclinical Development Candidate for the Treatment of Visceral Leishmaniasis” (Journal of Medicinal Chemistry, 2018)
